Test [1] has as its target Human immunodeficiency virus type 1 protease (Human immunodeficiency virus 1, UniProt Q72874). Briefly: Tested for inhibitory activity against HIV protease enzyme.
In test [2] the target is Human immunodeficiency virus type 1 protease (Human immunodeficiency virus 1) (UniProt Q72874).
Description: Tested for antiviral potency against HIV protease enzyme

As a reminder, the IC50 is the concentration that gives 50% inhibition. A low value points to greater potency in that assay. One may read the IC95 as the point of the concentration-response curve where the effect stands at 95%. For the compound `CC(C)(C)NC(=O)[C@@H]1C[C@@H]2CCCC[C@@H]2CN1C[C@@H](O)[C@H](Cc1ccccc1)NC(=O)O[C@@H]1CO[C@@H]2OCC[C@@H]21`, the IC50 in test [1] amounted to 6.4 nM. Also, the 95% effect level in test [2] (IC95) was put at 200 nM.

For the origin of these results see ChEMBL document CHEMBL1127743, “Structure-based design of HIV-1 protease inhibitors: replacement of two amides and a 10 pi-aromatic system by a fused bis-tetrahydrofuran” (J Med Chem, 1994).
